From PubChem BioAssay (NCI)
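GI50 marks 50% less growth. TGI: concentration producing complete growth inhibition.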

Legend:
Assay in all cases: NCI tumour cell line growth inhibition, 384-well format
MDA-MB-435 melanoma = test system: MDA-MB-435 melanoma
NCI-H23 lung = test system: NCI-H23 lung
OVCAR-8 ovarian = test system: OVCAR-8 ovarian
SK-OV-3 ovarian = test system: SK-OV-3 ovarian
KM12 colon = test system: KM12 colon
A498 renal = test system: A498 renal
A549 NSCLC = test system: A549 NSCLC
SF-268 CNS = test system: SF-268 CNS
SF-539 CNS = test system: SF-539 CNS
SF-295 CNS = test system: SF-295 CNS
IGROV1 ovarian = test system: IGROV1 ovarian
SW-620 colon = test system: SW-620 colon
DU-145 prostate = test system: DU-145 prostate
HCT-15 colon = test system: HCT-15 colon
CAKI-1 renal = test system: CAKI-1 renal
NCI-H460 NSCLC = test system: NCI-H460 NSCLC
OVCAR-4 ovarian = test system: OVCAR-4 ovarian
786-0 renal = test system: 786-0 renal
HS 578T breast = test system: HS 578T breast
MDA-MB-231 breast = test system: MDA-MB-231 breast
U251 glioblastoma = test system: U251 glioblastoma
HOP-62 NSCLC = test system: HOP-62 NSCLC
UACC-257 melanoma = test system: UACC-257 melanoma
UO-31 renal = test system: UO-31 renal
MALME-3M melanoma = test system: MALME-3M melanoma
HCT-116 colon = test system: HCT-116 colon
SK-MEL-5 melanoma = test system: SK-MEL-5 melanoma
NCI/ADR-RES ovarian = test system: NCI/ADR-RES ovarian
LOX IMVI melanoma = test system: LOX IMVI melanoma
OVCAR-3 ovarian = test system: OVCAR-3 ovarian
BT-549 breast = test system: BT-549 breast
T-47D breast = test system: T-47D breast
SN12C renal = test system: SN12C renal
OVCAR-5 ovarian = test system: OVCAR-5 ovarian
RPMI-8226 leukemia = test system: RPMI-8226 leukemia
NCI-H322M lung = test system: NCI-H322M lung
ACHN renal = test system: ACHN renal
UACC-62 melanoma = test system: UACC-62 melanoma
MCF7 breast = test system: MCF7 breast
HOP-92 NSCLC = test system: HOP-92 NSCLC
PC-3 prostate = test system: PC-3 prostate
CCRF-CEM leukemia = test system: CCRF-CEM leukemia
SK-MEL-2 melanoma = test system: SK-MEL-2 melanoma
HT29 colon = test system: HT29 colon
SNB-75 CNS = test system: SNB-75 CNS
HL-60(TB) leukemia = test system: HL-60(TB) leukemia
MDA-MB-468 breast = test system: MDA-MB-468 breast

`C=CC(=O)Nc1cc(C)ccc1Nc1nc(Nc2cc(OC)ncc2C)ncc1C(F)(F)F` was tested, and the GI50 (MDA-MB-435 melanoma) was 253 nM, the TGI (MDA-MB-435 melanoma) was 1510 nM and the GI50 (NCI-H23 lung) was 192 nM. It also gave a TGI (NCI-H23 lung) of 661 nM, a GI50 (OVCAR-8 ovarian) of 1120 nM and a TGI (OVCAR-8 ovarian) of 4190 nM. The GI50 (SK-OV-3 ovarian) was 621 nM, the TGI (SK-OV-3 ovarian) was 4210 nM and the GI50 (KM12 colon) was 444 nM. For the same compound, the TGI (KM12 colon) was over 100000 nM, the GI50 (A498 renal) was 479 nM and the TGI (A498 renal) was 1900 nM. For the same compound, the GI50 (A549 NSCLC) was 569 nM, the TGI (A549 NSCLC) was 2050 nM and the GI50 (SF-268 CNS) was 1500 nM. The TGI (SF-268 CNS) was 5940 nM, the GI50 (SF-539 CNS) was 362 nM and the TGI (SF-539 CNS) was 1550 nM. It also gave a GI50 (SF-295 CNS) of 3610 nM, a TGI (SF-295 CNS) of over 100000 nM and a GI50 (IGROV1 ovarian) of 233 nM. The TGI (IGROV1 ovarian) was 906 nM, the GI50 (SW-620 colon) was 405 nM and the TGI (SW-620 colon) was 1680 nM. For the same compound, the GI50 (DU-145 prostate) was 865 nM, the TGI (DU-145 prostate) was 3600 nM and the GI50 (HCT-15 colon) was 857 nM. It also gave a TGI (HCT-15 colon) of 9300 nM, a GI50 (CAKI-1 renal) of 401 nM and a TGI (CAKI-1 renal) of 1440 nM. The GI50 (NCI-H460 NSCLC) was 698 nM, the TGI (NCI-H460 NSCLC) was 2720 nM and the GI50 (OVCAR-4 ovarian) was 394 nM. The TGI (OVCAR-4 ovarian) was 7500 nM, the GI50 (786-0 renal) was 853 nM and the TGI (786-0 renal) was over 100000 nM. It also gave a GI50 (HS 578T breast) of 429 nM, a TGI (HS 578T breast) of 1850 nM and a GI50 (MDA-MB-231 breast) of 283 nM. The TGI (MDA-MB-231 breast) was 1100 nM, the GI50 (U251 glioblastoma) was 951 nM and the TGI (U251 glioblastoma) was 2560 nM. It also gave a GI50 (HOP-62 NSCLC) of 725 nM, a TGI (HOP-62 NSCLC) of 2620 nM and a GI50 (UACC-257 melanoma) of 117 nM. It also gave a TGI (UACC-257 melanoma) of 390 nM, a GI50 (UO-31 renal) of 394 nM and a TGI (UO-31 renal) of 2880 nM. For the same compound, the GI50 (MALME-3M melanoma) was 16.1 nM, the TGI (MALME-3M melanoma) was 65.8 nM and the GI50 (HCT-116 colon) was 206 nM. For the same compound, the TGI (HCT-116 colon) was 562 nM, the GI50 (SK-MEL-5 melanoma) was 147 nM and the TGI (SK-MEL-5 melanoma) was 1970 nM. The GI50 (NCI/ADR-RES ovarian) was 1030 nM, the TGI (NCI/ADR-RES ovarian) was 2590 nM and the GI50 (LOX IMVI melanoma) was 169 nM. The TGI (LOX IMVI melanoma) was 423 nM, the GI50 (OVCAR-3 ovarian) was 447 nM and the TGI (OVCAR-3 ovarian) was 3030 nM. For the same compound, the GI50 (BT-549 breast) was 300 nM, the TGI (BT-549 breast) was 1020 nM and the GI50 (T-47D breast) was 813 nM. It also gave a TGI (T-47D breast) of 5380 nM, a GI50 (SN12C renal) of 321 nM and a TGI (SN12C renal) of 2180 nM. For the same compound, the GI50 (OVCAR-5 ovarian) was 279 nM, the TGI (OVCAR-5 ovarian) was 1500 nM and the GI50 (RPMI-8226 leukemia) was 232 nM. The TGI (RPMI-8226 leukemia) was 1170 nM, the GI50 (NCI-H322M lung) was 570 nM and the TGI (NCI-H322M lung) was 3890 nM. For the same compound, the GI50 (ACHN renal) was 374 nM, the TGI (ACHN renal) was 1820 nM and the GI50 (UACC-62 melanoma) was 59.9 nM. It also gave a TGI (UACC-62 melanoma) of 381 nM, a GI50 (MCF7 breast) of 690 nM and a TGI (MCF7 breast) of 4130 nM. The GI50 (HOP-92 NSCLC) was 282 nM, the TGI (HOP-92 NSCLC) was 700 nM and the GI50 (PC-3 prostate) was 1970 nM. For the same compound, the TGI (PC-3 prostate) was 99700 nM, the GI50 (CCRF-CEM leukemia) was 1710 nM and the TGI (CCRF-CEM leukemia) was 3400 nM. It also gave a GI50 (SK-MEL-2 melanoma) of 113 nM, a TGI (SK-MEL-2 melanoma) of 271 nM and a GI50 (HT29 colon) of 340 nM. It also gave a TGI (HT29 colon) of 1520 nM, a GI50 (SNB-75 CNS) of 336 nM and a TGI (SNB-75 CNS) of 1290 nM. For the same compound, the GI50 (HL-60(TB) leukemia) was 136 nM, the TGI (HL-60(TB) leukemia) was 1070 nM and the GI50 (MDA-MB-468 breast) was 1150 nM. For the same compound, the TGI (MDA-MB-468 breast) was 2570 nM.
